In patent US11279691B2, “Substituted pyridine and pyrazine compounds as PDE4 inhibitors” (Dart Neuroscience LLC, priority 2013, dated 2022):

Target: T1, PDE4D3 (Homo sapiens, UniProt Q08499)
T1 construct: GST
Format: biochemical
Conditions: GST-tagged PDE4D3, 200 nM FAM-cAMP, 11-point dose-response; read-out: PD4d3 pEC50 (converted)

T1 sequence (Q08499 1-673 isoform Q08499-2): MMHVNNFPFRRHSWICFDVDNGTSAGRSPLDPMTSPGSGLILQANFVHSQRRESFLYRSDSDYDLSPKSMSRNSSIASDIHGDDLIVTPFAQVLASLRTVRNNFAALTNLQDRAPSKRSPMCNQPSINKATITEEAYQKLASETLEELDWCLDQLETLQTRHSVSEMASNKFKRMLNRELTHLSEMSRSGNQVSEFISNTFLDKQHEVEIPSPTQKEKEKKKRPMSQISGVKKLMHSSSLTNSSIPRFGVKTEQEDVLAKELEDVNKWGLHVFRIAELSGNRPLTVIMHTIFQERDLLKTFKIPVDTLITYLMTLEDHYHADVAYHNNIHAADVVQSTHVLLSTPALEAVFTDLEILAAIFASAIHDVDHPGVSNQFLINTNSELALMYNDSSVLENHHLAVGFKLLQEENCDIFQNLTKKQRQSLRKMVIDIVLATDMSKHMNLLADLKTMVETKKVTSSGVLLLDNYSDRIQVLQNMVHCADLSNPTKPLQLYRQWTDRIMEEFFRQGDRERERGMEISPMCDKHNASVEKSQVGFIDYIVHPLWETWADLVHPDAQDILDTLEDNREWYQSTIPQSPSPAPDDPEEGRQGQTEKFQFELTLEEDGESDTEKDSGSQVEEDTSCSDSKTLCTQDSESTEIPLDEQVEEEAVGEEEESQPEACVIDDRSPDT

Compound: COc1ncc(Cc2cnc(C(N)=O)nc2)cc1-c1ccc(F)c(Cl)c1 [Example 282, 5-{[5-(3-Chloro-4-fluorophenyl)-6-methoxypyridin-3-yl]methyl}pyrimidine-2-carboxamide]
- EC50: 100 to 1000 nM

Compound: CCOc1cc(-c2cc(Cc3cnc(N)nc3)cnc2OC)ccc1F [Example 355, 5-{[5-(3-Ethoxy-4-fluorophenyl)-6-methoxypyridin-3-yl]methyl}pyrimidin-2-amine]
- EC50: 100 to 1000 nM

Compound: CCOc1ncc(Cc2cnc(NCCO)nc2)nc1-c1ccc(F)c(F)c1 [Example 294, 2-((5-((6-(3,4-difluorophenyl)-5-ethoxypyrazin-2-yl)methyl)pyrimidin-2-yl)amino)ethanol]
- EC50: < 100 nM

Compound: CCOc1ncc(Cn2nnnc2C)cc1-c1ccc(Cl)c(F)c1 [Example 397, 3-(4-Chloro-3-fluorophenyl)-2-ethoxy-5-[(5-methyl-1H-1,2,3,4-tetrazol-1-yl)methyl]pyridine]
- EC50: 100 to 1000 nM

Compound: COc1ncc(Cc2cnc(C(C)(C)C#N)nc2)cc1-c1cccc(Cl)c1 [Example 284, 2-(5-((5-(3-Chlorophenyl)-6-methoxypyridin-3-yl)methyl)pyrimidin-2-yl)-2-methylpropanenitrile]
- EC50: 1000 to 10000 nM

Compound: CCOc1ncc(Cn2nnc(C)n2)cc1-c1ccc(F)c(F)c1 [Example 393, 3-(3,4-Difluorophenyl)-2-ethoxy-5-[(5-methyl-2H-1,2,3,4-tetrazol-2-yl)methyl]pyridine]
- EC50: < 100 nM

Compound: COc1ncc(Cn2nnnc2CO)cc1-c1ccc(F)cc1 [Example 382, (1-{[5-(4-Fluorophenyl)-6-methoxypyridin-3-yl]methyl}-1H-1,2,3,4-tetrazol-5-yl)methanol]
- EC50: 1000 to 10000 nM

Compound: NC(=O)Cc1ncn(Cc2cnc(OC(F)F)c(-c3cccc(Cl)c3)c2)n1 [Example 372, 2-(1-{[5-(3-Chlorophenyl)-6-(difluoromethoxy)pyridin-3-yl]methyl}-1H-1,2,4-triazol-3-yl)acetamide]
- EC50: < 100 nM

Compound: COc1cc(-c2cc(Cn3cnc(N)n3)cnc2OC)ccc1F [Example 407, 1-{[5-(4-Fluoro-3-methoxyphenyl)-6-methoxypyridin-3-yl]methyl}-1H-1,2,4-triazol-3-amine]
- EC50: 1000 to 10000 nM

Compound: COc1ncc(Cc2ccc(CC(N)=O)cc2)cc1-c1ccc(F)cc1 [Example 364, 2-(4-{[5-(4-Fluorophenyl)-6-methoxypyridin-3-yl]methyl}phenyl)acetamide]
- EC50: < 100 nM

Compound: N#CCc1ncc(Cc2cnc(OCC(F)F)c(-c3cccc(Cl)c3)c2)cn1 [Example 348, 2-(5-{[5-(3-Chlorophenyl)-6-(2,2-difluoroethoxy)pyridin-3-yl]methyl}pyrimidin-2-yl)acetonitrile]
- EC50: < 100 nM

Compound: CCOc1ncc(Cn2nc(CO)cc2C)cc1-c1cccc(Cl)c1 [Example 325, (1-{[5-(3-Chlorophenyl)-6-ethoxypyridin-3-yl]methyl}-5-methyl-1H-pyrazol-3-yl)methanol]
- EC50: < 100 nM

Compound: COc1ncc(Cc2cnc(OCCO)nc2)cc1-c1cccc(Cl)c1 [Example 303, 2-((5-((5-(3-Chlorophenyl)-6-methoxypyridin-3-yl)methyl)pyrimidin-2-yl)oxy)ethanol]
- EC50: < 100 nM

Compound: COc1ncc(Cc2cnc(N)nc2)cc1-c1cccc(C#N)c1 [Example 356, 3-{5-[(2-Aminopyrimidin-5-yl)methyl]-2-methoxypyridin-3-yl}benzonitrile]
- EC50: 100 to 1000 nM

Compound: COc1ncc(Cc2cnc(NCCO)nc2)cc1-c1ccc(F)c(F)c1 [Example 375, 2-[(5-{[5-(3,4-Difluorophenyl)-6-methoxypyridin-3-yl]methyl}pyrimidin-2-yl)amino]ethan-1-ol]
- EC50: < 100 nM

Compound: COc1ncc(Cc2cnc(OCC(N)=O)nc2)cc1-c1cccc(Cl)c1 [Example 298, 2-((5-((5-(3-Chlorophenyl)-6-methoxypyridin-3-yl)methyl)pyrimidin-2-yl)oxy)acetamide]
- EC50: < 100 nM

Compound: CCOc1ncc(Cc2cncc(F)c2)cc1-c1ccnc(OC(F)F)c1 [Example 306, 3-[2-(Difluoromethoxy)pyridin-4-yl]-2-ethoxy-5-[(5-fluoropyridin-3-yl)methyl]pyridine]
- EC50: < 100 nM

Compound: COc1ncc(Cn2cc(CO)nc2C)cc1-c1ccc(F)c(F)c1 [Example 345, (1-{[5-(3,4-Difluorophenyl)-6-methoxypyridin-3-yl]methyl}-2-methyl-1H-imidazol-4-yl)methanol]
- EC50: 100 to 1000 nM

Compound: CCOc1ncc(Cn2cnc(CO)n2)cc1-c1cccc(OC)c1 [Example 327, (1-{[6-Ethoxy-5-(3-methoxyphenyl)pyridin-3-yl]methyl}-1H-1,2,4-triazol-3-yl)methanol]
- EC50: < 100 nM

Compound: CCOc1cc(-c2cc(Cc3cnc(N)nc3)cnc2OC)ccn1 [Example 349, 5-{[5-(2-Ethoxypyridin-4-yl)-6-methoxypyridin-3-yl]methyl}pyrimidin-2-amine]
- EC50: < 100 nM

Compound: CCOc1ncc(Cn2nnnc2C)cc1-c1cc(F)cc(OC)c1 [Example 402, 2-Ethoxy-3-(3-fluoro-5-methoxyphenyl)-5-[(5-methyl-1H-1,2,3,4-tetrazol-1-yl)methyl]pyridine]
- EC50: 100 to 1000 nM

Compound: COc1ncc(Cc2cnc(C(N)=O)nc2)cc1-c1ccc(F)cc1 [Example 374, 5-{[5-(4-Fluorophenyl)-6-methoxypyridin-3-yl]methyl}pyrimidine-2-carboxamide]
- EC50: 100 to 1000 nM

Compound: CCOc1ncc(Cn2cnc(CO)n2)cc1-c1cncc(Cl)c1 [Example 329, (1-{[5-(5-Chloropyridin-3-yl)-6-ethoxypyridin-3-yl]methyl}-1H-1,2,4-triazol-3-yl)methanol]
- EC50: 1000 to 10000 nM

Compound: COc1ncc(Cn2cc(CO)nc2C)cc1-c1ccc(F)cc1 [Example 344, (1-{[5-(4-Fluorophenyl)-6-methoxypyridin-3-yl]methyl}-2-methyl-1H-imidazol-4-yl)methanol]
- EC50: 100 to 1000 nM

Compound: CCOc1ncc(Cn2cnc(CO)n2)cc1-c1ccc(F)c(F)c1 [Example 340, (1-{[5-(3,4-Difluorophenyl)-6-ethoxypyridin-3-yl]methyl}-1H-1,2,4-triazol-3-yl)methanol]
- EC50: < 100 nM

Compound: CCOc1ncc(Cn2cnc(CO)n2)cc1-c1cc(F)cc(F)c1 [Example 338, (1-{[5-(3,5-Difluorophenyl)-6-ethoxypyridin-3-yl]methyl}-1H-1,2,4-triazol-3-yl)methanol]
- EC50: 100 to 1000 nM

Compound: COc1ncc(Cn2ccc(C(N)=O)n2)cc1-c1ccnc(C#N)c1 [Example 307, 1-{[5-(2-Cyanopyridin-4-yl)-6-methoxypyridin-3-yl]methyl}-1H-pyrazole-3-carboxamide]
- EC50: 1000 to 10000 nM

Compound: CCOc1ncc(Cn2nnnc2C)cc1-c1cccc(OC(F)F)c1 [Example 399, 3-[3-(Difluoromethoxy)phenyl]-2-ethoxy-5-[(5-methyl-1H-1,2,3,4-tetrazol-1-yl)methyl]pyridine]
- EC50: < 100 nM

Compound: COc1ncc(Cn2nnnc2CO)cc1-c1ccc(Cl)c(F)c1 [Example 386, (1-{[5-(4-Chloro-3-fluorophenyl)-6-methoxypyridin-3-yl]methyl}-1H-1,2,3,4-tetrazol-5-yl)methanol]
- EC50: 1000 to 10000 nM

Compound: COc1ncc(Cc2cnc(N)nc2)cc1-c1ccnc(C#N)c1 [Example 347, 4-{5-[(2-Aminopyrimidin-5-yl)methyl]-2-methoxypyridin-3-yl}pyridine-2-carbonitrile]
- EC50: 100 to 1000 nM

Compound: COc1ncc(Cn2nnnc2C)cc1-c1cccc(Cl)c1 [Example 380, 3-(3-Chlorophenyl)-2-methoxy-5-[(5-methyl-1H-1,2,3,4-tetrazol-1-yl)methyl]pyridine]
- EC50: < 100 nM

Compound: CCOc1ncc(Cn2cc(CO)nc2C)cc1-c1cccc(Cl)c1 [Example 326, (1-{[5-(3-Chlorophenyl)-6-ethoxypyridin-3-yl]methyl}-2-methyl-1H-imidazol-4-yl)methanol]
- EC50: < 100 nM

Compound: COc1ncc(Cc2ccc(CC(N)=O)cc2)cc1-c1cccc(Cl)c1 [Example 280, 2-(4-((5-(3-Chlorophenyl)-6-methoxypyridin-3-yl)methyl)phenyl)acetamide]
- EC50: < 100 nM

Compound: CCOc1ncc(Cc2cnc(CO)c(F)c2)cc1-c1ccnc(OC(F)F)c1 [Example 405, [5-({5-[2-(Difluoromethoxy)pyridin-4-yl]-6-ethoxypyridin-3-yl}methyl)-3-fluoropyridin-2-yl]methanol]
- EC50: < 100 nM

Compound: CCOc1ncc(Cn2nc(N)cc2C)cc1-c1cccc(Cl)c1 [Example 317, 1-{[5-(3-Chlorophenyl)-6-ethoxypyridin-3-yl]methyl}-5-methyl-1H-pyrazol-3-amine]
- EC50: 100 to 1000 nM

Compound: COc1ncc(Cn2cc(CO)nc2C)nc1-c1cccc(Cl)c1 [Example 322, (1-{[6-(3-Chlorophenyl)-5-methoxypyrazin-2-yl]methyl}-2-methyl-1H-imidazol-4-yl)methanol]
- EC50: 100 to 1000 nM

Compound: COc1ncc(Cc2cnc(CO)nc2)cc1-c1cccc(Cl)c1 [Example 299, (5-((5-(3-Chlorophenyl)-6-methoxypyridin-3-yl)methyl)pyrimidin-2-yl)methanol]
- EC50: < 100 nM

Compound: COc1ncc(Cn2nnc(CO)n2)cc1-c1ccc(Cl)c(F)c1 [Example 385, (2-{[5-(4-Chloro-3-fluorophenyl)-6-methoxypyridin-3-yl]methyl}-2H-1,2,3,4-tetrazol-5-yl)methanol]
- EC50: 100 to 1000 nM

Compound: CCOc1ncc(Cn2cnc(CO)n2)cc1-c1ccc(Cl)c(Cl)c1 [Example 330, (1-{[5-(3,4-Dichlorophenyl)-6-ethoxypyridin-3-yl]methyl}-1H-1,2,4-triazol-3-yl)methanol]
- EC50: 100 to 1000 nM

Compound: COc1ncc(Cc2cnc(N)cn2)cc1-c1ccc(Cl)c(F)c1 [Example 379, 5-{[5-(4-Chloro-3-fluorophenyl)-6-methoxypyridin-3-yl]methyl}pyrazin-2-amine]
- EC50: 100 to 1000 nM

Compound: COc1ncc(Cn2nc(CO)cc2C)cc1-c1ccnc(OC(F)F)c1 [Example 316, [1-({5-[2-(Difluoromethoxy)pyridin-4-yl]-6-methoxypyridin-3-yl}methyl)-5-methyl-1H-pyrazol-3-yl]methanol]
- EC50: 100 to 1000 nM

Compound: Cc1nc(CO)cn1Cc1cnc(OCC(F)F)c(-c2cccc(Cl)c2)c1 [Example 406, (1-{[5-(3-Chlorophenyl)-6-(2,2-difluoroethoxy)pyridin-3-yl]methyl}-2-methyl-1H-imidazol-4-yl)methanol]
- EC50: < 100 nM
